Results published in ChEMBL document CHEMBL1201862, “PubChem BioAssay data set” (2004).
Where “and” joins values, the source holds several entries; their conditions need not be identical. Identical values can stand only once.

How the values were obtained:
Cytochrome P450 1A2 = target: T1, Cytochrome P450 1A2 (Homo sapiens, UniProt P05177);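 note: PubChem cytochrome P450 panel assay, CYP1A2 panel member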
T1 sequence (P05177 whole entry): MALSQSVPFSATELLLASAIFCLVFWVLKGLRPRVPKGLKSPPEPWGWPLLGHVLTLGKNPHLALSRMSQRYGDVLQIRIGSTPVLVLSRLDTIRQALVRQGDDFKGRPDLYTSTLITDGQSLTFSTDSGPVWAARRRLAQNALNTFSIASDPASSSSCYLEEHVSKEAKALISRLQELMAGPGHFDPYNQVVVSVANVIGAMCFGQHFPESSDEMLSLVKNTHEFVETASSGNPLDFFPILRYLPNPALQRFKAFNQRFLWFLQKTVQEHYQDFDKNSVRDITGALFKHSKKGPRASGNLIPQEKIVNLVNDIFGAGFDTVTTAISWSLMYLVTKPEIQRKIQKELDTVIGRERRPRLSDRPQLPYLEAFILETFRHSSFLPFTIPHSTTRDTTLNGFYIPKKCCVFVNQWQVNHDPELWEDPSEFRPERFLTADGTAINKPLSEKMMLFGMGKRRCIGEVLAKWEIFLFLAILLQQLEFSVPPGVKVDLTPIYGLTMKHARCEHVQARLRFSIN

Cytochrome P450 2C9 = Cytochrome P450 2C9 (Homo sapiens, UniProt P11712)
Cytochrome P450 2C9, sequence (P11712 whole entry): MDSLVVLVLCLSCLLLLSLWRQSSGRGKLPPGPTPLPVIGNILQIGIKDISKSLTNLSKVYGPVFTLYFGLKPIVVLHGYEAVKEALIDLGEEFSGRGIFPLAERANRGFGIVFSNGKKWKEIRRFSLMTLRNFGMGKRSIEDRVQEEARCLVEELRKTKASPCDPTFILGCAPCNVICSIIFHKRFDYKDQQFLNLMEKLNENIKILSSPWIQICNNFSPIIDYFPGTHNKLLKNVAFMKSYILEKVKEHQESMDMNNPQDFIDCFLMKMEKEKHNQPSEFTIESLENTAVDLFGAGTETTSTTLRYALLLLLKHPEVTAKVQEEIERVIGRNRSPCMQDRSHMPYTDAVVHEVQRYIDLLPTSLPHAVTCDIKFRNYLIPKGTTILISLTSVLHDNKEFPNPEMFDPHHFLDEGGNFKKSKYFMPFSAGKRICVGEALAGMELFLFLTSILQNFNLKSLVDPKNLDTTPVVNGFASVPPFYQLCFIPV

Cytochrome P450 2D6 = Cytochrome P450 2D6 (Homo sapiens, UniProt P10635);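 note: CYP2D6 member of a cytochrome P450 panel assay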
Cytochrome P450 2D6, sequence (P10635 whole entry): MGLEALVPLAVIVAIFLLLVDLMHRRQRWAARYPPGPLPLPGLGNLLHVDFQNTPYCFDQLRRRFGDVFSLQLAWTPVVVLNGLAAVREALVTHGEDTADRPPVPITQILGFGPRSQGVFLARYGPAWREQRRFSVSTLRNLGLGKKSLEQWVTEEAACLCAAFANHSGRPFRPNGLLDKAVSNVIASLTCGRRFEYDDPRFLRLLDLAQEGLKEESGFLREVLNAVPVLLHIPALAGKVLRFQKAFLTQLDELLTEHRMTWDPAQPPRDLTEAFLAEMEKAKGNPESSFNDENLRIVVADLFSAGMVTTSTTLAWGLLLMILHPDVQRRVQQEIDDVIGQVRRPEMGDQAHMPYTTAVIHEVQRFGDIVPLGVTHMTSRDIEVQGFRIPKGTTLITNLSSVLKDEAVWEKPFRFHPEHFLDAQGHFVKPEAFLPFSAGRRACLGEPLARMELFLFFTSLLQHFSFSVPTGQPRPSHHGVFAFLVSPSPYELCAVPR

Cytochrome P450 2C19 = Cytochrome P450 2C19 (Homo sapiens, UniProt P33261); experiment: Cytochrome panel assay with activity outcomes. Panel member name: p450-cyp2c19 Compounds with AC50 equal or less than 10 uM are considered active; type: functional
Cytochrome P450 2C19, sequence (P33261 whole entry): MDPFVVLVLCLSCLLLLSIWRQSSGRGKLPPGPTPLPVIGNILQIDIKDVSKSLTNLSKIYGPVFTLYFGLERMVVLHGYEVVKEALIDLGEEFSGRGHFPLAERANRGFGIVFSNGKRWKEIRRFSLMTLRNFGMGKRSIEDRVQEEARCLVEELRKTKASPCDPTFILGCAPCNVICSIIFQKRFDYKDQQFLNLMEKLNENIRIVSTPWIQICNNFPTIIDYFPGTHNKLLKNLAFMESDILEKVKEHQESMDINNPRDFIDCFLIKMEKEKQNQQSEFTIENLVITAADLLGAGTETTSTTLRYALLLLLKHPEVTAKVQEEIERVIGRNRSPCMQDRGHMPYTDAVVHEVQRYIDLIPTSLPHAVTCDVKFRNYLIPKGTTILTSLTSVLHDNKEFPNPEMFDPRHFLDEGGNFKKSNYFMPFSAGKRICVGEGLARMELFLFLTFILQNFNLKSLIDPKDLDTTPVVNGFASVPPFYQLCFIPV

Cytochrome P450 3A4 = Cytochrome P450 3A4 (Homo sapiens, UniProt P08684);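 note: CYP3A4 tested as one member of a cytochrome P450 panel screen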
Cytochrome P450 3A4, sequence (P08684 whole entry): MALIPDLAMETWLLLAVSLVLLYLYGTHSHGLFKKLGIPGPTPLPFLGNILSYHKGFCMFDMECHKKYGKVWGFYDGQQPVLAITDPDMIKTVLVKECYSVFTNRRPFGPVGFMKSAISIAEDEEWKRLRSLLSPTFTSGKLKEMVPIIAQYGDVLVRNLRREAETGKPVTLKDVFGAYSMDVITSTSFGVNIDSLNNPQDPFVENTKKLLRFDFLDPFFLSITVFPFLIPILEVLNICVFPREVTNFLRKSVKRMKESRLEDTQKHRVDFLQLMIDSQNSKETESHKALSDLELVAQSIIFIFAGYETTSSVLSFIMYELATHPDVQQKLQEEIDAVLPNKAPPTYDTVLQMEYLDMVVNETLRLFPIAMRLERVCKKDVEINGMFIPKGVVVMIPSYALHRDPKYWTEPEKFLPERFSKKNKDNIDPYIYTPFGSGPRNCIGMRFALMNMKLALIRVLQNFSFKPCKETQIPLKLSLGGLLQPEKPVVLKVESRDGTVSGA

| SMILES | AC50 (Cytochrome P450 2C9) | AC50 (Cytochrome P450 2D6) | AC50 (Cytochrome P450 2C19) | AC50 (Cytochrome P450 2C19; read-out: AC50) | AC50 (Cytochrome P450 3A4) | AC50 (Cytochrome P450 1A2) |
| --- | --- | --- | --- | --- | --- | --- |
| Cc1c(Cl)c(S(N)(=O)=O)cc2c1N=CNS2(=O)=O | inconclusive | 3.98 µM (inconclusive) |  |  |  |  |
| CN(C)CCCN1c2ccccc2CCc2ccc(Cl)cc21 [CLOMIPRAMINE] | inactive |  | inactive |  |  | 15.8 µM (active) and 5.01 µM (active) and 20 µM (inconclusive) |
| CC(C)CN1CCCC2(CCN(C(=O)c3ccco3)CC2)C1 | inconclusive |  |  |  | 31.6 µM (inconclusive) |  |

Now from value to molecule, other results behind:

| AC50 (Cytochrome P450 2C9) | AC50 (Cytochrome P450 2D6) | AC50 (Cytochrome P450 2C19) | AC50 (Cytochrome P450 2C19; read-out: AC50) | AC50 (Cytochrome P450 3A4) | SMILES | AC50 (Cytochrome P450 1A2) |
| --- | --- | --- | --- | --- | --- | --- |
| inconclusive |  |  |  |  | Cc1ccccc1C(=O)Nc1ccc(N2CCOCC2)nc1 | 17.8 µM (inconclusive) |
| inconclusive |  |  | 11.2 µM (inconclusive) |  | Cc1cc(SC(C)C(=O)Nc2c(C)n(C)n(-c3ccccc3)c2=O)nc2ccccc12 (stereo unspecified) |  |
